The source made the active and inactive calls. The rule behind the calls is not given here.
How the values were obtained:
Canis familiaris [1] = experiment: Ex vivo percent inhibition of platelet aggregation at oral dose of 2 mg/kg after 140 min; assay type: functional; conditions: Canis lupus familiaris
Canis familiaris [2] = experiment: Ex vivo percent inhibition of platelet aggregation at oral dose of 4 mg/kg after 480 min; assay type: functional; conditions: Canis lupus familiaris, 8 h
[3] = target: Integrin alpha-5/beta-1 (Homo sapiens) (UniProt P05556+P08648); experiment: Inhibition of human umbilical vein endothelial cell (HUVEC) adhesion to fibronectin at 300 uM (No inhibition); assay type: cell-based
[4] = target: Integrin alpha-IIb/beta-3 (Homo sapiens) (UniProt P05106+P08514); experiment: Inhibition of human umbilical vein endothelial cell (HUVEC) adhesion to fibrinogen at 300 uM (No inhibition); assay type: cell-based
HUVEC = experiment: Inhibition of human umbilical vein endothelial cell (HUVEC) adhesion to vitronectin at 300 uM (No inhibition); assay type: cell-based

inhibition [3]: inactive
inhibition [4]: inactive
Structure (SMILES): O=C(O)CCNC(=O)c1ccc2c(c1)C(=O)N(CCC1CCNCC1)C2
inhibition in vivo at 2 mg/kg (Canis familiaris [1]): 65%
inhibition in vivo at 4 mg/kg (Canis familiaris [2]): 90%
inhibition (HUVEC): inactive

Source: ChEMBL document CHEMBL1127939, “Non-peptide fibrinogen receptor antagonists. 3. design and discovery of a centrally constrained inhibitor” (Bioorg Med Chem Lett, 1994)
